Results on two molecules are retold here after patent US20200352907A1, “Use Of Carbamate Compound For Preventing, Alleviating Or Treating Absence Seizure Or Epilepsy Showing Absence Seizure” (SK BIOPHARMACEUTICALS CO., LTD., priority 2017, published 2020).

SMILES strings stand for the structures.

Assay [1] relates to GAERS (Genetic Absence Epilepsy Rat from Strasbourg) model. In words: Efficacy test in GAERS model rats: EEG analysis of spike-and-wave discharges (SWD). The assay is classed as in vivo. The settings on record: for cumulated duration of SWD / number of occurrences of SWD: 20-minute intervals 10-90 min after administration, 2-way ANOVA vs vehicle; for cumulated duration of SWD, total effect for 1 hour after administration / number of occurrences of SWD, total effect for 1 hour after administration: 1-way ANOVA vs vehicle, effect similar to valproate 150 and 200 mg/kg. The protocol: Twelve 5-week-old GAERS model rats were purchased from the Grenoble Institute of Neurosciences, France. After purchase, the rats were bred at a temperature of 21±2° C. under conditions of free access to food and water, and controlled light (illuminated from 8 am to 8 pm), and the condition was maintained for 2 months prior to surgery.
EEG electrodes were implanted into twelve 3-month-old GAERS rats. Stereotaxic implantation was performed under anesthesia with isoflurane (2% concentration in oxygen). The rats were fixed to the stereotaxic frame and surgery was performed while observing body temperature. An ophthalmic gel was used to prevent drying of the cornea. After cutting the hair of the incision site, it was disinfected with povidone, and after incision, four holes were drilled using a drill at the frontal cortical and parietal cortical positions of both hemispheres of the open skull. Monopolar electrodes were placed in these holes and then connected to a female connector fixed to the skull for EEG recording. The incision site was then sutured. After surgery, buprenorphine was injected subcutaneously at a dose of 0.1 mg/kg, and the anesthetic was removed and observed until recovery of consciousness. After that, the rats were kept in a cage for recovery for a week.
One week after the electrode implantation, preliminary EEG measurements of 1 hour were performed on all 12 animals, and 10 animals showing enough signal-to-noise suitable for detecting generation of SWD were selected.
Test compound and positive control drug were prepared immediately before administration. Carbamic acid (R)-1-(2-chlorophenyl)-2-tetrazol-2-yl-ethyl ester prepared in the above preparation example was used as the test compound which was dissolved in 30% (volume/volume) PEG300 (81164-14, Sigma-Aldrich), and the positive control valproate (P4543, Sigma-Aldrich) was dissolved in 0.9% sterile saline (Cooper, France). Both drugs were administered intraperitoneally at a dose of 5 ml/kg. 30% PEG300 was used for vehicle administration as the negative control.
The test was done in a cross-over method, with a minimum interval of 71 hours between each administration for wash-out of the drug. In the first stage test, the following conditions were administered. • Vehicle (30% PEG300) • Valproate 200 mg/kg • Test compound 5 mg/kg • Test compound 10 mg/kg • Test compound 20 mg/kg
In the second stage test, the following conditions were administered. • Valproate 150 mg/kg • Test compound 30 mg/kg
For EEG recording, 10 GAERS rats were placed in a recording chamber and then connected to a wire for EEG recording. After an hour of habituation process, EEG recordings of free-moving animals were performed. As a baseline phase, 20 minutes of recording were performed before drug administration, and 90 minutes of recording were performed after drug administration, using SystemPlus Evolution (Micromed). During the recording, the animals were kept in a quiet wakefulness state.
The generated SWD was analyzed using the recorded EEG data, and all data analysis was performed by blind method. SWD was analyzed for the 20-minute baseline phase and for a total of 80 minutes period from 10 to 90 minutes after drug administration. The 80 minutes were analyzed by dividing them into 20-minute intervals, and the number of occurrences of SWD and the cumulated SWD duration (the cumulated duration of SWD) were analyzed.
Results were expressed as mean value ±standard error, and prism (graphpad) was used for statistical analysis. 2-way ANOVA was used for the number of occurrences of SWD and the cumulated duration of SWD over time. Bonferroni's paired comparison method was used for comparison with the baseline period, comparison with the vehicle-administered negative control and comparison with the valproate-administered positive control. […]

In assay [2] the test system is GAERS model rats. Particulars: known from literature; cited from earlier work.
The mark [3] stands for this setting: compared with valproate positive control.

For the molecule `NC(=O)O[C@@H](Cn1ncnn1)c1ccccc1Cl` [test compound, Carbamic acid (R)-1-(2-chlorophenyl)-2-tetrazol-2-yl-ethyl ester], in assay [1] (setting [3]), the “effect duration (cumulated duration of SWD)” value is “longer duration than valproate” and the “effect duration (number of occurrences of SWD)” value is on record as “longer duration than valproate”. Besides, in assay [1] (test compound 10 mg/kg i.p.), the “cumulated duration of SWD” value is “significant reduction effect in the 30-50 min and 50-70 min intervals after administration”; the “number of occurrences of SWD” value is given as “significance in the 30 to 50 min interval after administration”. In assay [1] (test compound 20 mg/kg i.p.), the “cumulated duration of SWD, total effect for 1 hour after administration” value is “significantly reduced the cumulated duration of SWD compared to the vehicle administration group”; the “number of occurrences of SWD, total effect for 1 hour after administration” value is listed as “significantly reduced the number of occurrences of SWD compared to the vehicle administration group”; the “cumulated duration of SWD” value was “significant reduction effect in the 30-90 min interval after administration”; the “number of occurrences of SWD” value is given as “significance in the 30 to 90 min interval after administration”. Besides, in assay [1] (test compound 30 mg/kg i.p.), the “cumulated duration of SWD, total effect for 1 hour after administration” value was “significantly reduced the cumulated duration of SWD compared to the vehicle administration group”; the “number of occurrences of SWD, total effect for 1 hour after administration” value is “significantly reduced the number of occurrences of SWD compared to the vehicle administration group”; the “cumulated duration of SWD” value is “significant reduction effect in the entire period after administration”; the “number of occurrences of SWD” value is recorded as “significance in the entire period after administration”.

For `CCC1(C)CC(=O)NC1=O` (stereo not shown) [ethosuximide], the “SWD in the GAERS model rats” value in assay [2] is recorded as “inhibited”.
